{"source": "patent US7067522B2", "about": "“2,4,DI (hetero-) arylamino (-oxy)-5-substituted pyrimidines as antineoplastic agents” (AstraZeneca AB, priority 2000, dated 2006)", "key": {"[1]": {"biological_target": "T1, human Focal Adhesion Kinase (FAK) (Homo sapiens, UniProt Q05397)", "T1 construct": "FAK (full length human cDNA described by Andre et al); made in house; host or cells: Sf21 insect cells, baculovirus (pFastbac 1); cleared cell lysate used as enzyme stock", "T1 sequence (Q05397 whole entry)": "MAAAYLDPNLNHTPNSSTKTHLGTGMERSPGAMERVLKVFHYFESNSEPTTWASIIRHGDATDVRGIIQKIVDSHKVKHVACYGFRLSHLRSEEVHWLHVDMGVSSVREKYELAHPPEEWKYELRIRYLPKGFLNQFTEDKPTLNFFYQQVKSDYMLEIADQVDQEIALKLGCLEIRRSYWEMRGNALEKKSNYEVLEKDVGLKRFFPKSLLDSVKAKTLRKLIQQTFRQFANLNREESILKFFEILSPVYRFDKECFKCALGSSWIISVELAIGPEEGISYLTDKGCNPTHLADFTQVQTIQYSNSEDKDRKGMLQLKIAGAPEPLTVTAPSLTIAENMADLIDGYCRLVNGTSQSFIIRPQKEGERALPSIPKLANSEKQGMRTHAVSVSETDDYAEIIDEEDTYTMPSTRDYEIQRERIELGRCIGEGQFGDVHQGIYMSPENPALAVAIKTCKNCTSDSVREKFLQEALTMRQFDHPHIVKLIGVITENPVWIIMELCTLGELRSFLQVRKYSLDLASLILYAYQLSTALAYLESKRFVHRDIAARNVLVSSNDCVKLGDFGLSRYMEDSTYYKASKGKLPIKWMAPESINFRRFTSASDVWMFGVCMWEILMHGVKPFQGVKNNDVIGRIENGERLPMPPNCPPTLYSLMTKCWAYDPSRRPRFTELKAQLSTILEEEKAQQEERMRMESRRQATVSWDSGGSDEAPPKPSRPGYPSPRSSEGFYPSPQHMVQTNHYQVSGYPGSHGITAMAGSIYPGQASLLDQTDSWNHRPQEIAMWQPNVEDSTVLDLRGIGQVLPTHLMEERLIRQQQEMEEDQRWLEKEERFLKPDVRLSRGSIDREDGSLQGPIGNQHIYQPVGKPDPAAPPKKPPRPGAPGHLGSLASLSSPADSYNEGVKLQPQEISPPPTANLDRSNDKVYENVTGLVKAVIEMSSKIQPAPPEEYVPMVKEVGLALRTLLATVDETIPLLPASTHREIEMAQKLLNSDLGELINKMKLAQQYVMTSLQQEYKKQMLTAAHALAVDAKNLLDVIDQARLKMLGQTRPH", "experiment": "FAK3 Kinase Inhibition Assay (in vitro enzyme assay)", "type": "biochemical", "conditions": "read-out: FAK inhibitory activity IC50", "excerpt": "FAK3 Kinase Inhibition Assay\nThis assay determines the ability of a test compound to inhibit tyrosine kinase activity of human Focal Adhesion Kinase (FAK).\nActive FAK protein has been previously expressed in a baculovirus system using a similar N-terminal 6-histidine tag (Protein Expression And Purification, 1996, 7: 12–18). The human FAK cDNA was cloned into the baculovirus transplacement vector, pFastbac 1 (Life Technologies), and the recombinant construct was co-transfected into insect cells (for example Spodoptera frugiperda 21(Sf21)) with viral DNA to prepare recombinant baculovirus (details of the methods for the assembly of recombinant DNA molecules and the preparation and use of recominant baculovirus can be found in standard texts for example Sambrook et al, 1989, Molecular cloning-A Laboratory Manual, 2nd edition, Cold Spring Harbour Laboratory Press and O'Reilly et al, 1992, Baculovirus Expression Vectors-A Laboratory Manual, W. H. Freeman and Co, New York. Details specific to the use of the pFastbac (‘Bac to Bac’) system are provided in Anderson et al., 1995, FOCUS (Life Technologies Bulletin Magazine), 17, p53.)\nFor expression of biologically active human FAK protein, Sf21 cells were infected with plaque-pure FAK recombinant virus at a multiplicity of infection of 3 and harvested 48 hours later. […]"}, "CDK4/Cyclin D1": {"biological_target": "T2, CDK4/Cyclin D1 (Homo sapiens, UniProt P11802)", "T2 construct": "made in house; host or cells: Sf21 insect cells, baculovirus co-infection (pVL1393)", "T2 sequence (P11802 whole entry)": "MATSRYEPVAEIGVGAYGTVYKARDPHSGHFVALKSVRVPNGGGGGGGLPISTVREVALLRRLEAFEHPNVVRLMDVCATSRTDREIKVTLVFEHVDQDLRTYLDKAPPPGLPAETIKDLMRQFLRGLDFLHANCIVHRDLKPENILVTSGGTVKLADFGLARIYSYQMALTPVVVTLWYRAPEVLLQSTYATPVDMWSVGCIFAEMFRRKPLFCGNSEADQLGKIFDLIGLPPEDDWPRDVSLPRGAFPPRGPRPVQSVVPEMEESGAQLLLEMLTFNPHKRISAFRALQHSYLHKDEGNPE", "T2 sequence (P24385 whole entry partner)": "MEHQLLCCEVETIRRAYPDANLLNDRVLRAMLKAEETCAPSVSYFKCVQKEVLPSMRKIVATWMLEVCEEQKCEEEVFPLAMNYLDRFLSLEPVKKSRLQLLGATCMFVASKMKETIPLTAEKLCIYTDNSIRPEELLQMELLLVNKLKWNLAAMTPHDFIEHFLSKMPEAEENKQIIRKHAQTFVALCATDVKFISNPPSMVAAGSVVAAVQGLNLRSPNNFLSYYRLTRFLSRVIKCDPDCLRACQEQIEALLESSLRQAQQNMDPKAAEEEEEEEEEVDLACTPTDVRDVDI", "experiment": "CDK4 Inhibition Assay (Scintillation Proximity Assay, GST-Retinoblastoma substrate)", "type": "biochemical", "conditions": "in vitro kinase assay, 0.2 μM ATP; read-out: CDK4 inhibitory activity IC50", "description": "The compounds were tested in an in vitro kinase assay in 96 well format using Scintillation Proximity Assay (SPA-obtained from Amersham) for measuring incorporation of [γ-33-P]-Adenosine Triphosphate into a test substrate (GST-Retinoblastoma). In each well was placed the compound to be tested (diluted in DMSO and water to correct concentrations) and in control wells either p16 as an inhibitor control or DMSO as a positive control.\nApproximately 0.5 μl of CDK4/Cyclin D1 partially-purified enzyme (amount dependent on enzyme activity) diluted in 25 μl incubation buffer was added to each well then 20 μl of GST-Rb/ATP/ATP33 mixture (containing 0.5 μg GST-Rb and 0.2 μM ATP and 0.14 μCi [γ-33-P]-Adenosine Triphosphate), and the resulting mixture shaken gently, then incubated at room temperature for 60 minutes.\nTo each well was then added 150 μL stop solution containing (0.8 mg/well of Protein A-PVT SPA bead (Amersham)), 20 pM/well of Anti-Glutathione Transferase, Rabbit IgG (obtained from Molecular Probes), 61 mM EDTA and 50 mM HEPES pH 7.5 containing 0.05% sodium azide.\nThe plates were sealed with Topseal-S plate sealers, left for two hours then spun at 2500 rpm, 1124 xg., for 5 minutes. The plates were read on a Topcount for 30 seconds per well. […]"}}, "data": [{"smiles": "CCN(CC)CCOc1ccc(Nc2ncc(Br)c(Nc3ccccc3)n2)cc1", "note": "[Example 25]", "values": [{"measurement": "IC50", "setting": "[1]", "result": 218, "unit": "nM"}]}, {"smiles": "OCCOCc1ccc(Nc2ncc(Br)c(Nc3ccccc3)n2)cc1", "note": "[Example 31, 4-Anilino-5-bromo-2-[4-(2-hydroxyethoxy)methylanilino]pyrimidine]", "values": [{"measurement": "IC50", "setting": "CDK4/Cyclin D1", "result": 679, "unit": "nM"}]}]}
